{"source": "ChEMBL document CHEMBL5154879", "about": "“Induction of Genes Implicated in Stress Response and Autophagy by a Novel Quinolin-8-yl-nicotinamide QN523 in Pancreatic Cancer” (J Med Chem, 2022)", "key": {"MIA PaCa-2 [1]": {"test_system": "MIA PaCa-2", "assay": "Induction of apoptosis in human MIA PaCa-2 cells assessed as late apoptotic cells at 0.1 uM incubated for 48 hrs by Annexin V-FITC/PI staining based flow cytometry analysis (reference value: 0.8%)", "format": "functional"}, "MIA PaCa-2 [2]": {"test_system": "MIA PaCa-2", "assay": "Antitumor activity against human MIA PaCa-2 cells xenografted in NOD/SCID mouse assessed as tumor growth inhibition at 20 mg/kg, ip administered five times a week starting from day 10 to 44 and measured from day 17 relative to control", "format": "functional", "details": "MIA PaCa-2, 816 h, time 34 day, read-out: TGI"}, "BXPC-3": {"test_system": "BXPC-3", "assay": "Cytotoxicity against human BXPC-3 cells assessed as inhibition of cell growth incubated for 72 hrs by MTT assay", "format": "functional, cell-based", "details": "BXPC-3, 72 h"}, "OVCAR-8": {"test_system": "OVCAR-8", "assay": "Antiproliferative activity against human OVCAR-8 cells assessed as inhibition of cell growth incubated for 72 hrs by MTT assay", "format": "functional, cell-based", "details": "OVCAR-8, 72 h"}, "SNU-398": {"test_system": "SNU-398", "assay": "Antiproliferative activity against human SNU-398 cells assessed as inhibition of cell growth incubated for 72 hrs by MTT assay", "format": "functional, cell-based", "details": "SNU-398, 72 h"}, "MIA PaCa-2 [3]": {"test_system": "MIA PaCa-2", "assay": "Inhibition of colony formation in human MIA PaCa-2 cells at 0.1 to 1 uM incubated for 10 to 14 days by crystal violet staining based assay", "format": "functional, cell-based", "details": "dose 0.1-1 µM, time 10-14 day"}, "MIA PaCa-2 [4]": {"test_system": "MIA PaCa-2", "assay": "Induction of cell cycle arrest in human MIA PaCa-2 cells assessed as accumulation of cells at S phase at 0.5 uM incubated for 48 hrs by RNase/propidium iodide staining based flow cytometry analysis (Rvb =26.9 %)", "format": "functional"}, "MIA PaCa-2 [5]": {"test_system": "MIA PaCa-2", "assay": "Induction of cell cycle arrest in human MIA PaCa-2 cells assessed as accumulation of cells in G2/M phase at 0.5 uM incubated for 48 hrs by RNase/propidium iodide staining based flow cytometry analysis (reference value: 2.71%)", "format": "functional"}, "MIA PaCa-2 [6]": {"test_system": "MIA PaCa-2", "assay": "Induction of cell cycle arrest in human MIA PaCa-2 cells assessed as accumulation of cells in G0/G1 phase at 0.1 uM incubated for 24 hrs by RNase/propidium iodide staining based flow cytometry analysis (reference value: 64.3%)", "format": "functional"}, "MIA PaCa-2 [7]": {"test_system": "MIA PaCa-2", "assay": "Induction of cell cycle arrest in human MIA PaCa-2 cells assessed as accumulation of cells in G0/G1 phase at 0.5 uM incubated for 24 hrs by RNase/propidium iodide staining based flow cytometry analysis (reference value: 64.3%)", "format": "functional"}, "MIA PaCa-2 [8]": {"test_system": "MIA PaCa-2", "assay": "Induction of apoptosis in human MIA PaCa-2 cells assessed as late apoptotic cells at 0.1 uM incubated for 24 hrs by Annexin V-FITC/PI staining based flow cytometry analysis (reference value: 2.04%)", "format": "functional"}, "MIA PaCa-2 [9]": {"test_system": "MIA PaCa-2", "assay": "Induction of apoptosis in human MIA PaCa-2 cells assessed as late apoptotic cells at 0.5 uM incubated for 24 hrs by Annexin V-FITC/PI staining based flow cytometry analysis (reference value: 2.04%)", "format": "functional"}, "MIA PaCa-2 [10]": {"test_system": "MIA PaCa-2", "assay": "Induction of apoptosis in human MIA PaCa-2 cells assessed as early apoptotic cells at 0.5 uM incubated for 48 hrs by Annexin V-FITC/PI staining based flow cytometry analysis (reference value: 1.8%)", "format": "functional"}, "MIA PaCa-2 [11]": {"test_system": "MIA PaCa-2", "assay": "Induction of apoptosis in human MIA PaCa-2 cells assessed as late apoptotic cells at 0.5 uM incubated for 48 hrs by Annexin V-FITC/PI staining based flow cytometry analysis (reference value: 0.8%)", "format": "functional"}, "[12]": {"assay": "Toxicity in NOD/SCID mouse xenografted with human MIA PaCa- 2 cells assessed as morphological changes in spleen at 10 to 20 mg/kg, ip administered five times a week for 44 days by H and E staining based inverted microscopic analysis", "format": "organism-based", "details": "in vivo, 1056 h, dose 10-20 mg/kg, time 44 day"}, "MIA PaCa-2 [13]": {"test_system": "MIA PaCa-2", "assay": "Antitumor activity against human MIA PaCa-2 cells xenografted in NOD/SCID mouse assessed as tumor growth delay at 30 mg/kg, ip administered five times a week starting from day 44 to 51 post first dose", "format": "functional, organism-based", "details": "time 51.0 day"}, "[14]": {"assay": "Upregulation of HERPUD1 gene expression in human MIA PaCa-2 cells assessed as fold change in HERPUD1 expression at 1 uM incubated for 24 hrs by Bru-seq analysis relative to control", "format": "functional"}, "[15]": {"assay": "Upregulation of HSPA5 gene expression in human MIA PaCa-2 cells assessed as fold change in HSPA5 expression at 1 uM incubated for 24 hrs by Bru-seq analysis relative to control", "format": "functional"}, "[16]": {"assay": "Upregulation of SLFN5 gene expression in human MIA PaCa-2 cells assessed as fold change in SLFN5 expression at 1 uM incubated for 24 hrs by Bru-seq analysis relative to control", "format": "functional"}, "[17]": {"assay": "Upregulation of SAT1 gene expression in human MIA PaCa-2 cells assessed as fold change in SAT1 expression at 1 uM incubated for 24 hrs by Bru-seq analysis relative to control", "format": "functional"}, "[18]": {"assay": "Upregulation of MAP1LC3B gene expression in human MIA PaCa-2 cells assessed as fold change in MAP1LC3B expression at 1 uM incubated for 24 hrs by Bru-seq analysis relative to control", "format": "functional"}, "[19]": {"assay": "Upregulation of CXCL8 gene expression in human MIA PaCa-2 cells assessed as fold change in CXCL8 expression at 1 uM incubated for 24 hrs by Bru-seq analysis relative to control", "format": "functional"}, "[20]": {"assay": "Upregulation of SESN2 gene expression in human MIA PaCa-2 cells assessed as fold change in SESN2 expression at 1 uM incubated for 24 hrs by Bru-seq analysis relative to control", "format": "functional"}, "[21]": {"assay": "Upregulation of TXNIP gene expression in human MIA PaCa-2 cells assessed as fold change in TXNIP expression at 1 uM incubated for 24 hrs by Bru-seq analysis relative to control", "format": "functional"}, "[22]": {"assay": "Downregulation of TNFAIP8LI gene expression in human MIA PaCa-2 cells assessed as fold change in TNFAIP8LI expression at 1 uM incubated for 24 hrs by Bru-seq analysis relative to control", "format": "functional"}, "[23]": {"assay": "Downregulation of H2AFX gene expression in human MIA PaCa-2 cells assessed as fold change in H2AFX expression at 1 uM incubated for 24 hrs by Bru-seq analysis relative to control", "format": "functional"}, "MIA PaCa-2 [24]": {"test_system": "MIA PaCa-2", "assay": "Induction of UPR pathway in human MIA PaCa-2 cells by ingenuity pathway analysis", "format": "functional, cell-based"}, "MIA PaCa-2 [25]": {"test_system": "MIA PaCa-2", "assay": "Upregulation of stress response gene expression in human MIA PaCa-2 cells", "format": "functional, cell-based"}, "MIA PaCa-2 [26]": {"test_system": "MIA PaCa-2", "assay": "Upregulation of UPR gene expression in human MIA PaCa-2 cells by gene set enrichment analysis", "format": "functional, cell-based"}, "MIA PaCa-2 [27]": {"test_system": "MIA PaCa-2", "assay": "Upregulation of NFkappaB expression in human MIA PaCa-2 cells by gene set enrichment analysis", "format": "functional, cell-based"}, "MIA PaCa-2 [28]": {"test_system": "MIA PaCa-2", "assay": "Upregulation of apoptotic gene expression in human MIA PaCa-2 cells by gene set enrichment analysis", "format": "functional, cell-based"}, "MIA PaCa-2 [29]": {"test_system": "MIA PaCa-2", "assay": "Upregulation of MTOR signalling in human MIA PaCa-2 cells by gene set enrichment analysis", "format": "functional, cell-based"}, "MIA PaCa-2 [30]": {"test_system": "MIA PaCa-2", "assay": "Downregulation of G2M checkpoint gene expression in human MIA PaCa-2 cells by gene set enrichment analysis", "format": "functional, cell-based"}, "MIA PaCa-2 [31]": {"test_system": "MIA PaCa-2", "assay": "Upregulation of CHOP gene expression in human MIA PaCa-2 cells incubated for 72 hrs by Western blot analysis", "format": "functional, cell-based", "details": "dose <= 600.0 µM, DDE = dose-dependent effect"}}, "note": "Calls of active or inactive are those of the source. No cut-off for these calls is given here."}
{"compound": "O=C(Nc1cccc2cccnc12)c1cnccn1", "values": [{"measurement": "Activity", "setting": "MIA PaCa-2 [1]", "value": 1.5, "unit": "%"}, {"measurement": "inhibition in vivo at 20 mg/kg", "setting": "MIA PaCa-2 [2]", "value": 80, "unit": "%"}, {"measurement": "IC50", "setting": "BXPC-3", "value": 3.3, "unit": "µM"}, {"measurement": "IC50", "setting": "OVCAR-8", "value": 300, "unit": "nM"}, {"measurement": "IC50", "setting": "SNU-398", "value": 1900, "unit": "nM"}, {"measurement": "inhibition", "setting": "MIA PaCa-2 [3]", "value": "Active"}, {"measurement": "Activity", "setting": "MIA PaCa-2 [4]", "value": 57.3, "unit": "%"}, {"measurement": "Activity", "setting": "MIA PaCa-2 [5]", "value": 11.5, "unit": "%"}, {"measurement": "Activity", "setting": "MIA PaCa-2 [6]", "value": 52, "unit": "%"}, {"measurement": "Activity", "setting": "MIA PaCa-2 [7]", "value": 44.5, "unit": "%"}, {"measurement": "Activity", "setting": "MIA PaCa-2 [8]", "value": 2.3, "unit": "%"}, {"measurement": "Activity", "setting": "MIA PaCa-2 [9]", "value": 2.1, "unit": "%"}, {"measurement": "Activity", "setting": "MIA PaCa-2 [10]", "value": 2.2, "unit": "%"}, {"measurement": "Activity", "setting": "MIA PaCa-2 [11]", "value": 1.8, "unit": "%"}, {"measurement": "Activity", "setting": "[12]", "value": "Non-Toxic"}, {"measurement": "Activity", "setting": "MIA PaCa-2 [13]", "value": "Active"}, {"measurement": "fold change (FC)", "setting": "[14]", "value": 9.8}, {"measurement": "fold change (FC)", "setting": "[15]", "value": 8.8}, {"measurement": "fold change (FC)", "setting": "[16]", "value": 10.3}, {"measurement": "fold change (FC)", "setting": "[17]", "value": 7}, {"measurement": "fold change (FC)", "setting": "[18]", "value": 6.8}, {"measurement": "fold change (FC)", "setting": "[19]", "value": 6}, {"measurement": "fold change (FC)", "setting": "[20]", "value": 5.4}, {"measurement": "fold change (FC)", "setting": "[21]", "value": 6}, {"measurement": "fold change (FC)", "setting": "[22]", "value": 0.32}, {"measurement": "fold change (FC)", "setting": "[23]", "value": 0.35}, {"measurement": "Activity", "setting": "MIA PaCa-2 [24]", "value": "Active"}, {"measurement": "Activity", "setting": "MIA PaCa-2 [25]", "value": "Active"}, {"measurement": "Activity", "setting": "MIA PaCa-2 [26]", "value": "Active"}, {"measurement": "Activity", "setting": "MIA PaCa-2 [27]", "value": "Active"}, {"measurement": "Activity", "setting": "MIA PaCa-2 [28]", "value": "Active"}, {"measurement": "Activity", "setting": "MIA PaCa-2 [29]", "value": "Active"}, {"measurement": "Activity", "setting": "MIA PaCa-2 [30]", "value": "Active"}, {"measurement": "Activity", "setting": "MIA PaCa-2 [31]", "value": "Dde"}]}
